Results from PubChem BioAssay (NCI).
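These data come from cells grown in 96-well plates and exposed to compound for 48 hours at five concentrations. Here, GI50 denotes the concentration required for 50% inhibition of growth. Definition used: TGI = concentration required for complete inhibition of growth.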

How the values were obtained:
Experiment in all cases: NCI-60 cell line screen, 48 h
786-0 renal = system: 786-0 renal
A549 NSCLC = system: A549 NSCLC
ACHN renal = system: ACHN renal
BT-549 breast = system: BT-549 breast
CAKI-1 renal = system: CAKI-1 renal
CCRF-CEM leukemia = system: CCRF-CEM leukemia
COLO 205 colon = system: COLO 205 colon
DU-145 prostate = system: DU-145 prostate
EKVX NSCLC = system: EKVX NSCLC
HCC-2998 colon = system: HCC-2998 colon
HCT-116 colon = system: HCT-116 colon
HCT-15 colon = system: HCT-15 colon
HL-60(TB) leukemia = system: HL-60(TB) leukemia
HOP-62 NSCLC = system: HOP-62 NSCLC
HOP-92 NSCLC = system: HOP-92 NSCLC
HS 578T breast = system: HS 578T breast
HT29 colon = system: HT29 colon
IGROV1 ovarian = system: IGROV1 ovarian
K-562 leukemia = system: K-562 leukemia
KM12 colon = system: KM12 colon
LOX IMVI melanoma = system: LOX IMVI melanoma
M14 melanoma = system: M14 melanoma
MALME-3M melanoma = system: MALME-3M melanoma
MCF7 breast = system: MCF7 breast
MDA-MB-231 breast = system: MDA-MB-231 breast
MDA-MB-435 = system: MDA-MB-435
MOLT-4 leukemia = system: MOLT-4 leukemia
NCI-H226 lung = system: NCI-H226 lung
NCI-H23 lung = system: NCI-H23 lung
NCI-H460 lung = system: NCI-H460 lung
NCI-H522 lung = system: NCI-H522 lung
NCI/ADR-RES ovarian = system: NCI/ADR-RES ovarian
OVCAR-3 ovarian = system: OVCAR-3 ovarian
OVCAR-4 ovarian = system: OVCAR-4 ovarian
OVCAR-5 ovarian = system: OVCAR-5 ovarian
OVCAR-8 ovarian = system: OVCAR-8 ovarian
PC-3 prostate = system: PC-3 prostate
RPMI-8226 leukemia = system: RPMI-8226 leukemia
RXF 393 renal = system: RXF 393 renal
SF-268 CNS = system: SF-268 CNS
SF-295 CNS = system: SF-295 CNS
SF-539 CNS = system: SF-539 CNS
SK-MEL-28 melanoma = system: SK-MEL-28 melanoma
SK-MEL-5 melanoma = system: SK-MEL-5 melanoma
SK-OV-3 ovarian = system: SK-OV-3 ovarian
SN12C renal = system: SN12C renal
SNB-19 CNS = system: SNB-19 CNS
SNB-75 CNS = system: SNB-75 CNS
SW-620 colon = system: SW-620 colon
T-47D breast = system: T-47D breast
TK-10 renal = system: TK-10 renal
U251 CNS = system: U251 CNS
UACC-257 melanoma = system: UACC-257 melanoma
UACC-62 melanoma = system: UACC-62 melanoma
UO-31 renal = system: UO-31 renal
A498 renal = system: A498 renal
SK-MEL-2 melanoma = system: SK-MEL-2 melanoma

Structure (SMILES): Cc1n[nH]c(=S)n1/N=C/c1ccc(F)c(Oc2ccccc2)c1
- GI50 (786-0 renal): 42.3 µM
- TGI (786-0 renal): > 100 µM
- GI50 (A549 NSCLC): 42.2 µM
- TGI (A549 NSCLC): > 100 µM
- GI50 (ACHN renal): > 100 µM
- TGI (ACHN renal): > 100 µM
- GI50 (BT-549 breast): 63.7 µM
- TGI (BT-549 breast): > 100 µM
- GI50 (CAKI-1 renal): 0.496 µM
- TGI (CAKI-1 renal): 0.944 µM
- GI50 (CCRF-CEM leukemia): 40.5 µM
- TGI (CCRF-CEM leukemia): > 100 µM
- GI50 (COLO 205 colon): 68.1 µM
- TGI (COLO 205 colon): > 100 µM
- GI50 (DU-145 prostate): 49.5 µM
- TGI (DU-145 prostate): > 100 µM
- GI50 (EKVX NSCLC): 32.8 µM
- TGI (EKVX NSCLC): 99.4 µM
- GI50 (HCC-2998 colon): 69.5 µM
- TGI (HCC-2998 colon): > 100 µM
- GI50 (HCT-116 colon): 36 µM
- TGI (HCT-116 colon): > 100 µM
- GI50 (HCT-15 colon): 49.7 µM
- TGI (HCT-15 colon): > 100 µM
- GI50 (HL-60(TB) leukemia): 48.6 µM
- TGI (HL-60(TB) leukemia): > 100 µM
- GI50 (HOP-62 NSCLC): 49.4 µM
- TGI (HOP-62 NSCLC): > 100 µM
- GI50 (HOP-92 NSCLC): 63.3 µM
- TGI (HOP-92 NSCLC): > 100 µM
- GI50 (HS 578T breast): 33.2 µM
- TGI (HS 578T breast): > 100 µM
- GI50 (HT29 colon): 27.5 µM
- TGI (HT29 colon): > 100 µM
- GI50 (IGROV1 ovarian): 62.3 µM
- TGI (IGROV1 ovarian): > 100 µM
- GI50 (K-562 leukemia): 54.5 µM
- TGI (K-562 leukemia): > 100 µM
- GI50 (KM12 colon): 41.3 µM
- TGI (KM12 colon): > 100 µM
- GI50 (LOX IMVI melanoma): 51.1 µM
- TGI (LOX IMVI melanoma): > 100 µM
- GI50 (M14 melanoma): 36.9 µM
- TGI (M14 melanoma): > 100 µM
- GI50 (MALME-3M melanoma): 65.7 µM
- TGI (MALME-3M melanoma): > 100 µM
- GI50 (MCF7 breast): 41.4 µM
- TGI (MCF7 breast): > 100 µM
- GI50 (MDA-MB-231 breast): 41.2 µM
- TGI (MDA-MB-231 breast): > 100 µM
- GI50 (MDA-MB-435): 28.6 µM
- TGI (MDA-MB-435): 77.1 µM
- GI50 (MOLT-4 leukemia): 47.6 µM
- TGI (MOLT-4 leukemia): > 100 µM
- GI50 (NCI-H226 lung): > 100 µM
- TGI (NCI-H226 lung): > 100 µM
- GI50 (NCI-H23 lung): 42.2 µM
- TGI (NCI-H23 lung): > 100 µM
- GI50 (NCI-H460 lung): 39 µM
- TGI (NCI-H460 lung): > 100 µM
- GI50 (NCI-H522 lung): 48.2 µM
- TGI (NCI-H522 lung): > 100 µM
- GI50 (NCI/ADR-RES ovarian): 33.2 µM
- TGI (NCI/ADR-RES ovarian): > 100 µM
- GI50 (OVCAR-3 ovarian): 44.6 µM
- TGI (OVCAR-3 ovarian): > 100 µM
- GI50 (OVCAR-4 ovarian): 44.9 µM
- TGI (OVCAR-4 ovarian): > 100 µM
- GI50 (OVCAR-5 ovarian): > 100 µM
- TGI (OVCAR-5 ovarian): > 100 µM
- GI50 (OVCAR-8 ovarian): 35.7 µM
- TGI (OVCAR-8 ovarian): > 100 µM
- GI50 (PC-3 prostate): 79.6 µM
- TGI (PC-3 prostate): > 100 µM
- GI50 (RPMI-8226 leukemia): 42.7 µM
- TGI (RPMI-8226 leukemia): > 100 µM
- GI50 (RXF 393 renal): > 100 µM
- TGI (RXF 393 renal): > 100 µM
- GI50 (SF-268 CNS): 28.4 µM
- TGI (SF-268 CNS): > 100 µM
- GI50 (SF-295 CNS): 57.8 µM
- TGI (SF-295 CNS): > 100 µM
- GI50 (SF-539 CNS): 27.7 µM
- TGI (SF-539 CNS): 65.1 µM
- GI50 (SK-MEL-28 melanoma): 7.1 µM
- TGI (SK-MEL-28 melanoma): 82.6 µM
- GI50 (SK-MEL-5 melanoma): 16.1 µM
- TGI (SK-MEL-5 melanoma): 33.4 µM
- GI50 (SK-OV-3 ovarian): > 100 µM
- TGI (SK-OV-3 ovarian): > 100 µM
- GI50 (SN12C renal): 95.6 µM
- TGI (SN12C renal): > 100 µM
- GI50 (SNB-19 CNS): 55.9 µM
- TGI (SNB-19 CNS): > 100 µM
- GI50 (SNB-75 CNS): 45.1 µM
- TGI (SNB-75 CNS): > 100 µM
- GI50 (SW-620 colon): 36.5 µM
- TGI (SW-620 colon): > 100 µM
- GI50 (T-47D breast): > 100 µM
- TGI (T-47D breast): > 100 µM
- GI50 (TK-10 renal): 43.9 µM
- TGI (TK-10 renal): > 100 µM
- GI50 (U251 CNS): 50.3 µM
- TGI (U251 CNS): > 100 µM
- GI50 (UACC-257 melanoma): 25.4 µM
- TGI (UACC-257 melanoma): 75.3 µM
- GI50 (UACC-62 melanoma): 52.4 µM
- TGI (UACC-62 melanoma): > 100 µM
- GI50 (UO-31 renal): 50 µM
- TGI (UO-31 renal): > 100 µM

Structure (SMILES): CC#CS(=O)(=O)c1ccccc1
- TGI (786-0 renal): 16.4 µM
- TGI (A498 renal): 29.3 µM
- TGI (A549 NSCLC): 31.4 µM
- TGI (ACHN renal): 12.8 µM
- TGI (BT-549 breast): 20.8 µM
- TGI (CAKI-1 renal): 2.36 µM
- TGI (COLO 205 colon): 24.7 µM
- TGI (DU-145 prostate): 10.2 µM
- TGI (EKVX NSCLC): 35.4 µM
- TGI (HCC-2998 colon): 13.9 µM
- TGI (HCT-116 colon): 17.6 µM
- TGI (HCT-15 colon): 9.4 µM
- TGI (HL-60(TB) leukemia): 3.81 µM
- TGI (HOP-62 NSCLC): 47.2 µM
- TGI (HOP-92 NSCLC): 6.96 µM
- TGI (HS 578T breast): 41.8 µM
- TGI (HT29 colon): 14.4 µM
- TGI (IGROV1 ovarian): 25.4 µM
- TGI (LOX IMVI melanoma): 21 µM
- TGI (M14 melanoma): 21.4 µM
- TGI (MALME-3M melanoma): 12.5 µM
- TGI (MCF7 breast): 40.9 µM
- TGI (MDA-MB-231 breast): 22.8 µM
- TGI (MDA-MB-435): 22.9 µM
- TGI (MOLT-4 leukemia): 1.43 µM
- TGI (NCI-H226 lung): 24.1 µM
- TGI (NCI-H23 lung): 18.8 µM
- TGI (NCI-H460 lung): 38 µM
- TGI (NCI-H522 lung): 3.92 µM
- TGI (NCI/ADR-RES ovarian): 28.8 µM
- TGI (OVCAR-3 ovarian): 3.59 µM
- TGI (OVCAR-4 ovarian): 11.7 µM
- TGI (OVCAR-5 ovarian): 18.2 µM
- TGI (OVCAR-8 ovarian): 12.5 µM
- TGI (PC-3 prostate): 25.2 µM
- TGI (RXF 393 renal): 31.8 µM
- TGI (SF-268 CNS): 35.2 µM
- TGI (SF-295 CNS): 14.5 µM
- TGI (SF-539 CNS): 15.5 µM
- TGI (SK-MEL-2 melanoma): 32.5 µM
- TGI (SK-MEL-28 melanoma): 12.6 µM
- TGI (SK-MEL-5 melanoma): 15.4 µM
- TGI (SK-OV-3 ovarian): 40.5 µM
- TGI (SN12C renal): 19.4 µM
- TGI (SNB-19 CNS): 27.2 µM
- TGI (SNB-75 CNS): 13.9 µM
- TGI (SW-620 colon): 16.5 µM
- TGI (T-47D breast): 6.22 µM
- TGI (TK-10 renal): 17.4 µM
- TGI (U251 CNS): 25.5 µM
- TGI (UACC-257 melanoma): 12.1 µM
- TGI (UACC-62 melanoma): 14.2 µM
- TGI (UO-31 renal): 3.58 µM
